Assay results as given in patent publication US12478628B2, “Germ cell nuclear factor ligands and methods of use thereof” (Saint Louis University, priority 2020, dated 2025).
Numbering of substitutions follows the chain as printed.

Key:
[1] = target: T1, GCNF LBD with SMRT ID2 corepressor peptide (Homo sapiens, UniProt Q15406); experiment: FP ligand titration assay, SMRT ID2 peptide recruitment; format: biochemical; details: 20 μM GCNF LBD
T1 construct: Human GCNF (NR6A1) LBD (residues 248-480); made in house; host or cells: E. coli BL(21) DE3
T1 sequence (Q15406 248-480): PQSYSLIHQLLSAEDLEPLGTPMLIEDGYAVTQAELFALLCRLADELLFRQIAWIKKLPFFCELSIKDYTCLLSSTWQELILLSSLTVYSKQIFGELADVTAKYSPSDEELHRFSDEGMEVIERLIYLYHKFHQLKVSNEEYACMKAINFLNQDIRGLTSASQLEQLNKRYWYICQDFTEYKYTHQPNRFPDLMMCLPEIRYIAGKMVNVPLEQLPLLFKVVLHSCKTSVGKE
T1 sequence (Q9Y618 2332-2354 partner limits assumed): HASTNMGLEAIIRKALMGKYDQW
Description: (§1) FP Assay. Fluorescence polarization (FP) assays were performed in triplicate on a 384-well Corning 3820 black opaque plate using a Biotek Synergy Neo2 HTS multimode microplate reader at excitation and emission wavelengths of 485 nm and 538 nm, respectively. Data were analyzed and plotted using GraphPad Prism as mean±SEM.
(§2) For the FP ligand titration assay, the aforementioned N-terminus fluorescein-tagged corepressor peptides were diluted to 500 nM from a 100 μM DMSO stock in the presence of 20 μM GCNF LBD and ligand concentration points 30, 20, 13, 9, 6, 4, 2.6, 1.7 and 0 μM in assay buffer containing 50 mM HEPES (pH 7.5), 50 mM KCl, 5 mM TCEP, 0.5 mM EDTA and 0.005% Tween20. The relative polarization was plotted against log of ligand concentration (μM) and the half maximal effective concentration (EC50) values were derived via sigmoidal fit.

[2] = test system: BeWo human choriocarcinoma cells; experiment: qPCR of GCNF target gene expression in BeWo cells; format: cell-based; details: 20 μM, 24 h
Description: BeWo cells were cultured in DMEM-F12 medium (Gibco) with 10% FBS (Gembio) and plated at 75,000 cells per well in 12-well plates (Corning). 24-hours after plating, cells were treated with either DMSO, ligand 34 or ligand 80 (20 μM) at 4 wells/group. RNA was isolated 24-hours after drug treatment and cDNA was synthesized for the QPCR assays using Bio-Rad iScript cDNA synthesis kit per manufacturer's protocol. Expression was analyzed by QPCR using a custom array plate (Bio-Rad PrimePCR) per manufacturer's protocol; n=4 was used for cell-based assays and plotted as mean±SEM.

GCNF LBD F361A = target: T2, GCNF LBD F361A (Homo sapiens, UniProt Q15406, F361A); experiment: DSF of GCNF LBD mutant F361A; format: binding; details: 20 μM ligand
T2 construct: Human GCNF (NR6A1) LBD (residues 248-480) and mutants F284A/F361A; hexahistidine tag with 3C protease site; made in house; host or cells: E. coli BL(21) DE3
T2 sequence (Q15406 248-480 F361A): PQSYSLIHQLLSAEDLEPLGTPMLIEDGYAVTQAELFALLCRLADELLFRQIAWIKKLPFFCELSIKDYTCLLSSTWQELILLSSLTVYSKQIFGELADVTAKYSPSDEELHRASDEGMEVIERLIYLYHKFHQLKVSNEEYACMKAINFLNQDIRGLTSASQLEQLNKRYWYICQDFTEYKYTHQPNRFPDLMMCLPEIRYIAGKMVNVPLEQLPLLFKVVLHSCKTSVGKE
Description: Protein Expression and Purification. Human GCNF (NR6A1) LBD (residues 248-480) and mutants F284A/F361A, human LRH-1 (NR5A2) LBD (residues 291-541), human RXRα LBD (residues 223-462), human COUP-TF I LBD (residues 184-410) and human SF-1 LBD (residues 219-461) were subcloned in pET45b(+) plasmid (Novagen) were expressed in E. coli BL(21) DE3 cells in terrific broth with 0.1 mg/mL ampicillin as 3C protease-cleavable hexahistidine-tagged fusion proteins. The bacterial culture was grown at 37° C. to an optical density of 0.8 to 1.0 at 600 nm. Protein expression was induced by adding 1 mM IPTG and was allowed to proceed for 14 h at 22° C. […]
DSF Assay. […] A total of 450 compounds (Life Chemicals) previously selected from a nuclear-receptor-biased library targeting REV-ERB were analyzed. Thermal stability was assessed on a Quantstudio 6 instrument (Biosystems) by ramping the temperature from 25° C. to 95° C. at 0.05° C./s and protein melt shifts were subsequently quantified by Boltzmann-derived melting temperature (Tm) using the Protein Thermal Shift (ThermoFisher) software. […]

GCNF LBD Y336F = target: T3, GCNF LBD Y336F (Homo sapiens, UniProt Q15406, Y336F); experiment: DSF of GCNF LBD mutant Y336F; format: binding; details: 5 mM protein with 20 mM ligand as printed
T3 construct: Human GCNF (NR6A1) LBD (residues 248-480); hexahistidine tag with 3C protease site; made in house; host or cells: E. coli BL(21) DE3
T3 sequence (Q15406 248-480 Y336F): T2 sequence (Q15406 248-480 F361A) with Y89F, A114F
Description: DSF Assay. GCNF LBD (5 μM) were mixed with 1× Sypro orange (Invitrogen) in DSF buffer (50 mM HEPES, 50 mM KCl, 5 mM TCEP, 0.5 mM EDTA, pH 7.5). […] Ten microliters (10 μL)×5 replicates for each sample were plated on 384-well PCR microplate. No protein control and no ligand references were also run simultaneously in 5 replicates on the same plate. A total of 450 compounds (Life Chemicals) previously selected from a nuclear-receptor-biased library targeting REV-ERB were analyzed. Thermal stability was assessed on a Quantstudio 6 instrument (Biosystems) by ramping the temperature from 25° C. to 95° C. at 0.05° C./s and protein melt shifts were subsequently quantified by Boltzmann-derived melting temperature (Tm) using the Protein Thermal Shift (ThermoFisher) software. Positive hits were identified when a thermal shift (ΔTm) of at least 2° C. was observed.

[3] = test system: GCNF single point mutations F284A, Y336F and F361A with SMRT ID2 peptide; experiment: FP SMRT ID2 recruitment with GCNF point mutants; format: biochemical, human; details: Y336F and F361A vs wild-type
Description: as §1, §2

Row | effect of mutation F361A on ΔTm compared to WT (GCNF LBD F361A) | Structure (SMILES) | effect on recruitment of SMRT ID2 to GCNF [1] | GCNF gene expression [2] | NR5A1 (SF-1) expression [2] | NR5A2 (LRH-1) expression [2] | Nanog expression [2] | Oct4 expression [2] | carnitine palmitoyltransferase 1a (CPT1a) expression [2] | diglyceride acyltransferase-1 (DGAT1) expression [2] | diglyceride acyltransferase-2 (DGAT2) expression [2] | fatty acid synthase (FASN) expression [2] | phosphoenolpyruvate carboxykinase (PEPCK) expression [2] | effect of substitution Y336F on ligand binding (DSF) (GCNF LBD Y336F) | SMRT-ID2 peptide recruitment by GCNF mutants [3]
1 | substantially decreased the ΔTm | Cc1ccc(-n2ncc3c(N4CCOCC4)nc(NCc4ccco4)nc32)cc1 [Ligand 34, N-[(furan-2-yl)methyl]-1-(4-methylphenyl)-4-(morpholin-4-yl)-1H-pyrazolo[3,4-d]pyrimidin-6-amine] | increased the recruitment | not affected | significantly promoted the expression | significantly promoted the expression | significantly promoted the expression | significantly promoted the expression | significantly increased | significantly promoted the expression | no significant effect | no significant effect | upregulated | substantially affect the binding | substantially weakened corepressor peptide recruitment
2 | completely abrogated the interaction | O=C(Cn1cc(S(=O)(=O)c2ccccc2)c2ccccc21)N1CCc2ccccc21 [Ligand 80, 2-[3-(benzenesulfonyl)-1H-indol-1-yl]-1-(2,3-dihydro-1H-indol-1-yl)ethan-1-one] | but not ligand 80, increased the recruitment of SMRT ID2 | not affected | but not 80, significantly promoted the expression | – | – | but not 80, significantly promoted the expression | no effect | but not 80, significantly promoted the expression | no significant effect | no significant effect | upregulated | only F361A significantly affect the binding of 80 | does not affect recruitment
